Here are results for 9 molecules from article PMC12291851, “Hydrogen Sulfide (H2S)-Donating Formyl Peptide Receptor 2 (FPR2) Agonists: Design, Synthesis, and Biological Evaluation in Primary Mouse Microglia Culture” (Antioxidants, 2025).

Series [1] has as its system organotypic hippocampal cultures. The arrangement: method as in PMID 37775304, PMID 37947648. The settings on record: nanomolar doses; ref [24],[25]; cited from earlier work.
Series [2] deals with T1, FPR2 (Homo sapiens, UniProt P25090).
T1 sequence (P25090 1-351): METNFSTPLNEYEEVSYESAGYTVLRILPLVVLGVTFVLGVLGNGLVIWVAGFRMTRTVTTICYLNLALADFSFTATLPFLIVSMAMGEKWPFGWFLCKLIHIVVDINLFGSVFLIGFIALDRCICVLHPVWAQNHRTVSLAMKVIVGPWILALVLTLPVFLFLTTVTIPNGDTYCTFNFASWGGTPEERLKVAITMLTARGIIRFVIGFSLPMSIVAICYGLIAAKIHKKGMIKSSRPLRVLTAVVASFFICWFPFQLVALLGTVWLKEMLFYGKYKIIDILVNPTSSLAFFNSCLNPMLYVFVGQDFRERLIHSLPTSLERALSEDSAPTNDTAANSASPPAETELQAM
Briefly: Ca2+ mobilization (agonist activity) in FPR2-HL60 cells. The settings on record: for fold less potent at FPR2 than the corresponding urea/amide: ratio of FPR2 EC50 vs 3b, 3c or 4b; for Ca2+ Mobilization HL60-FPR2 Efficacy: response to 5 nM WKYMVM = 100%.

For series [3], the system named is HepG2 hepatocarcinoma cells. Briefly: MTT cell viability assay, MTT added directly to treated media. The settings on record: 5% DMSO. The series is classed as cell-based, human. The protocol:
The cytotoxicity of our compounds was assessed using the well-established MTT assay. HepG2 hepatocarcinoma cells were cultured in Minimum Essential Medium (MEM) (Euroclone, Pero, Italy), supplemented with 10% fetal bovine serum (Euroclone, Pero, Italy), 100 U/mL penicillin, and 100 µg/mL streptomycin sulfate, at 37 °C in a humidified incubator in 5% CO2 atmosphere. For the MTT assays, these cells were cultured up to about 90% confluence and were then seeded at a concentration of 20,000 cells per well in 96-well plates. After 24 h, the culture medium was replaced with solutions at various concentrations of each compound in MEM/DMSO 5% (v/v). Control wells were incorporated in the experimental design, consisting of vehicle (MEM/DMSO 5%) and pure medium controls.
In the first round of cytotoxicity assays, 0.5 mg/mL MTT was added to each well 2 or 24 h from treatment and left to incubate for 3–5 h. In the second round of cytotoxicity assays, at 2 or 24 h after treatment, treated media were removed, the cells were washed once in PBS, and fresh medium containing 0.5 mg/mL MTT was added to each well and left to incubate for 3–5 h.
Subsequently, the supernatant was removed, and the formazan crystals were dissolved in DMSO/EtOH 1:1 (100 µL/well). Absorbance values were then recorded from each well using a Victor 3 plate reader (PerkinElmer, Shelton, CT, USA) at 570 nm. All presented data were obtained from 3 to 5 experiments performed in triplicate. Cell viability values are expressed as mean ± S.E.M. and were plotted using GraphPad Prism 7.
Next, we assessed H2S release in a biological environment using human hepatocarcinoma HepG2 cells as a model. The intracellular release of H2S was detected with the WSP-1 probe, a turn-on fluorescent probe that selectively and irreversibly reacts with H2S. Considering that a high micromolar concentration of the test compounds is required to obtain a robust fluorescent signal, we first evaluated the compounds’ cytotoxicity after 2 h and 24 h of incubation with the MTT assay in HepG2 cells. […] We accounted for this by adding a vehicle control with 5% DMSO and a control without DMSO to our experimental design.

Series [4] can be described thus: Cell-free MTT-based H2S release assay. Type of series: physicochemical. The settings on record: 24 h incubation in MEM with 10% DMSO. Here is the method:
Solutions at different concentrations of each compound in 100 µL of serum-free MEM/10% DMSO with 0.5 mg/mL 3-(4,5-dimethylthiazol-2yl)-2,5-diphenyltetrazolium bromide (MTT) were incubated for 5 h or 24 h in a humidified incubator at 37 °C in 5% CO2 atmosphere. The experimental design comprised blank wells containing only medium and MTT, and a H2S calibration curve obtained by incubating nine solutions at decreasing concentrations (100 µM to 0.01 µM) of NaHS in medium and MTT. At the end of incubation time, the supernatant was removed, the […] crystals were dissolved in 100 µL DMSO/EtOH (1:1 v/v), and absorbance values were read using a Victor 3 plate reader (PerkinElmer, Shelton, CT, USA) at 570 nm. H2S values are expressed as mean ± S.E.M. of the results of three independent experiments conducted in triplicate, and were plotted using GraphPad Prism 7.
To decipher such results and considering the redox properties of H2S, we questioned if H2S released by our compounds in the culture media could interfere with the conversion of MTT (3-[4,5-dimethylthiazol-2-yl]-2,5-diphenyl tetrazolium bromide) to formazan, which is usually related to cell viability. Thus, we ran cell-free experiments in which MTT was used as the substrate to capture the reductive action of H2S. We found, in agreement with Gerő et al., that some of our thioureas and thioamides reduced MTT to formazan after 24 h incubation in MEM with 10% DMSO.

The next series deals with HepG2 cells. Briefly: Intracellular H2S release with WSP-1 probe. Type of series: cell-based, human. The protocol: All cell culture reagents were purchased from S.I.A.L. S.r.l. (Rome, Italy). WSP-1 (Washington State Probe-1, 3′-methoxy-3-oxo-3H-spiro[isobenzofuran-1,9′-xanthen]-6′-yl 2-(pyridine-2-yl-disulfanyl benzoate), was obtained from Cayman Chemical (Cayman, Ann Arbor, MI, USA). HepG2, human hepatocellular carcinoma cells, was obtained from American Type Culture Collection (ATCC, Bethesda, MD, USA). Human hepatocellular carcinoma cells (HepG2) were cultured in Minimum Essential Eagle’s Medium. This medium was supplemented with 10% (v/v) Fetal Bovine Serum, 1% (v/v) Glutamine and 1% (v/v) Penicillin-Streptomycin, 1% non-essential amino acids. Cells were cultivated at 37 °C with 5% CO2 at saturated humidity.
These experiments were carried out as already described. HepG2 cells were cultured up to about 90% confluence, and 24 h before the experiment cells were seeded into a 96-well flat bottom black plate (50,000 cells per well). After 24 h, the medium was replaced and cells were incubated at 37 °C for 30 min with a 10 mM solution of the fluorescent WSP-1 probe, which is highly sensitive for H2S detection. After incubation, the supernatant was removed and replaced with different concentrations (100, 200, and 300 µM) of the tested compounds dissolved in HBSS buffer. […] ADT 100 µM was used as a slow H2S-donor reference compound. Data were analyzed by one-way ANOVA for repeated measures, followed by post hoc Bonferroni’s multiple comparison test. Results are expressed as mean ± SEM of 3 independent experiments in triplicate. Statistical significance was accepted at a level of p < 0.05.
Next, we assessed the intracellular H2S release of thioureas and thioamides in HepG2 cells. The compounds were tested at different concentrations (100–300 μM) to evaluate if the release was dose-dependent. We also assayed ADT-OH and TIA as reference H2S-donors, and 3a as a negative control. The results were normalized to the fluorescence signal obtained with 100 μM ADT-OH.

Series [5] concerns the target T1, FPR2. Briefly: FPR2 desensitization: inhibition of WKYMVM-induced Ca2+ mobilization in FPR2-HL60 cells. The series is classed as cell-based. Further details: expressed in transfected cells; host or cells: HL-60 cells. To be noted: 10 min preincubation, then 5 nM WKYMVM. The text has this:
Finally, we assessed the ability of compounds to induce receptor desensitization at FPR2 by measuring the inhibition of Ca^2+ mobilization induced by subsequent treatment with a standard FPR2 agonist (IC50, Table 1) because FPR2 undergoes homologous desensitization after stimulation with agonists, resulting in functional antagonism (IC50, Table 1). […] We also evaluated the effects of the thiourea and thioamide derivatives on Ca^2+ mobilization in FPR1-HL60-transfected cells after stimulation with the FPR1 agonist (IC50, Table 1).

Series [6] has as its target T1, FPR2. Briefly: cell-based.
Setting [7] is: HepG2, tested concentrations 100-300 μM, 60 min.

Take `N#Cc1ccc(C[C@H](NC(=O)Nc2ccc(F)cc2)C(=O)N2CCc3ccccc32)cc1` [3b, (S)-1-[3-(4-cyanophenyl)-1-(indolin-1-yl)-1-oxopropan-2-yl]-3-(4-fluorophenyl)urea]: the “protective and anti-inflammatory properties” value in series [1] was “beneficial protective and anti-inflammatory properties at nanomolar doses”.

For `N#Cc1ccc(C[C@H](NC(=S)Nc2ccc(F)cc2)C(=O)NCC2(c3ccc(F)c(Cl)c3)CC2)cc1` [5a, (S)-N-[[1-(3-Chloro-4-fluorophenyl)cyclopropyl]methyl]-3-(4-cyanophenyl)-2-[3-(4-fluorophenyl)thioureido]propanamide], the “Ca2+ Mobilization HL60-FPR2 EC50” value at FPR2 [2] (HL-60 cells transfected with human FPR2) is “inactive”. For the same molecule, the “MTT absorbance signal vs control” value is “pronounced signal” in series [3] (HepG2, 2 h incubation) and “higher than the control” in series [3] (HepG2, 24 h incubation). Further, the “absorbance signal (MTT reduction to formazan) indicative of H2S release” value in series [4] is “did not give off any detectable absorbance signal”. In the series with HepG2 cells (setting [7]), the “intracellular H2S release, WSP-1 fluorescence signal vs vehicle” value (“intracellular H2S release … vs vehicle” for short) was “comparable to vehicle”.

In the case of `N#Cc1ccc(C[C@H](NC(=S)Nc2ccc(F)cc2)C(=O)N2CCc3ccccc32)cc1` [5b, (S)-1-[3-(4-Cyanophenyl)-1-(indolin-1-yl)-1-oxopropan-2-yl]-3-(4-fluorophenyl)thiourea], at FPR2 [5], the “Ca2+ Mobilization HL60-FPR2 IC50 (FPR2 desensitization)” value (shortened to “Ca2+ Mobilization HL60-FPR2 IC50”) is “inactive”. On FPR2 [2], the “fold less potent at FPR2 than the corresponding urea/amide” value was “more than 10 fold” and the “Ca2+ Mobilization HL60-FPR2 Efficacy” value was determined as 65%. Further, a half-maximal response at FPR2 [6] (EC50) required 2200 ± 700 nM. Also, in series [4], the “absorbance signal (MTT reduction to formazan) indicative of H2S release” value is recorded as “significant absorbance signal with slight dose-dependent effects”.

Take `N#Cc1ccc(C[C@H](NC(=S)Nc2ccc(F)cc2)C(=O)N2CCc3ccc(F)cc32)cc1` [5c]: the “Ca2+ Mobilization HL60-FPR2 IC50” value on FPR2 [5] is “inactive”. Also, at FPR2 [2], the “fold less potent at FPR2 than the corresponding urea/amide” value was “more than 10 fold” and the “Ca2+ Mobilization HL60-FPR2 Efficacy” value was 105%. Further, a half-maximal effect at FPR2 [6] (EC50) was put at 12000 ± 32000 nM. In addition, the “MTT absorbance signal vs control” value in series [3] (HepG2, 2 h incubation) was “pronounced signal”. The “absorbance signal (MTT reduction to formazan) indicative of H2S release” value in series [4] is listed as “significant absorbance signal with slight dose-dependent effects”. For the same molecule, in the series on HepG2 cells (HepG2, at 200 and 300 μM), the “intracellular H2S release … vs vehicle” value is given as “statistically significant increase in the fluorescent signal”.

As for `N#Cc1ccc(C[C@H](NC(=S)Nc2ccc(Br)cc2)C(=O)N2CCc3ccccc32)cc1` [6b, (S)-1-(4-Bromophenyl)-3-[3-(4-cyanophenyl)-1-(indolin-1-yl)-1-oxopropan-2-yl]thiourea], the IC50 at FPR2 [5] was found to be 2200 ± 400 nM. In addition, at FPR2 [2], the “fold less potent at FPR2 than the corresponding urea/amide” value is listed as “more than 10 fold” and the “Ca2+ Mobilization HL60-FPR2 Efficacy” value was 65%. Moreover, a half-maximal response at FPR2 [6] (EC50) required 1700 ± 700 nM. The “MTT absorbance signal vs control” value in series [3] (HepG2, 2 h incubation) was “pronounced signal”. Also, the “MTT absorbance signal vs control” value in series [3] (HepG2, 24 h incubation) is recorded as “higher than the control”. Besides, the “intracellular H2S release … vs vehicle” value with HepG2 cells (HepG2, at 200 and 300 μM) is reported as “statistically significant increase in the fluorescent signal”.

As for `N#Cc1ccc(C[C@H](NC(=O)Nc2ccc(F)cc2)C(=S)NCC2(c3ccc(F)c(Cl)c3)CC2)cc1` [7a, (S)-N-[[1-(3-Chloro-4-fluorophenyl)cyclopropyl]methyl]-3-(4-cyanophenyl)-2-[3-(4-fluorophenyl)ureido]propanethioamide], on FPR2 [5], the “Ca2+ Mobilization HL60-FPR2 IC50” value was “submicromolar concentration” and the IC50 stood at 300 ± 100 nM. In addition, the “Ca2+ Mobilization HL60-FPR2 Efficacy” value on FPR2 [2] is 145%. Also, on FPR2 [6], the EC50 amounted to 2300 ± 800 nM. In series [4], the “absorbance signal (MTT reduction to formazan) indicative of H2S release” value was “below the assay’s detection limit”. Further, in the series on HepG2 cells (HepG2, at 200 and 300 μM, p < 0.001 vs. ADT), the “intracellular level of H2S vs reference H2S donor ADT” value is “more than the reference H2S donor ADT”. In addition, the “intracellular H2S release … vs vehicle” value in the series with HepG2 cells (setting [7]) was “significant fluorescence signal increase at all tested concentrations”. The “levels of H2S release in HepG2 cells” value in the series on HepG2 cells (summary of WSP-1 results) is “very high levels of H2S release”.

Regarding `O=c1cc(-c2cccc(O)c2)ss1` [ADT-OH, 5-(5-hydroxyphenyl)-3H-1,2-dithiol-3-one, reference compound], in the series with HepG2 cells (setting [7]), the “intracellular H2S release … vs vehicle” value is “statistically significant increase in fluorescence”.

For `[Na+].[SH-]` [NaHS, sodium hydrogen sulfide, reference compound], the “absorbance signal (MTT reduction to formazan) indicative of H2S release” value in series [4] was “strong dose-dependent signal”.

On to `NC(=O)c1ccc(O)cc1` [TIA, 4-hydroxybenzamide, reference compound], for which the “intracellular H2S release … vs vehicle” value in the series on HepG2 cells (HepG2, at 200 and 300 μM) was “statistically significant increase in fluorescence”.
